This note sets out measurements from ChEMBL document CHEMBL1909550, “Designing 2-aminoimidazole alkaloids analogs with anti-biofilm activities: structure-activities relationships of polysubstituted triazoles” (Bioorg Med Chem Lett, 2011).

In data set [1] the test system is Pseudoalteromonas sp. D41. Description: Antibiofilm activity against Pseudoalteromonas sp. D41 assessed as inhibition of bacterial adhesion after 15 hrs by fluorescence assay. The class given is functional. As to conditions: Pseudoalteromonas sp. D41, 15 h.
The test system of data set [2] is Paracoccus sp. Description: Antibiofilm activity against Paracoccus sp. 4M6 assessed as inhibition of bacterial adhesion after 15 hrs by fluorescence assay. The settings on record: Paracoccus sp. (in: a-proteobacteria), 4M6, 15 h. The data set is classed as functional.
Data set [3] is described as follows: Antibacterial activity against Pseudoalteromonas sp. D41 assessed as growth inhibition at 100 uM up to 6 hrs by viability assay. As to conditions: pseudoalteromonas sp. d41, 6 h.
Data set [4] concerns Pseudoalteromonas sp. D41. Briefly: Antibiofilm activity against Pseudoalteromonas sp. D41 assessed as inhibition of bacterial adhesion at 200 uM after 15 hrs by fluorescence assay relative to control. As to conditions: Pseudoalteromonas sp. D41, 15 h. The class given is functional.
The subject of data set [5] is Paracoccus sp. Briefly: Antibiofilm activity against Paracoccus sp. 4M6 assessed as inhibition of bacterial adhesion at 200 uM after 15 hrs by fluorescence assay. The class given is functional. As to conditions: Paracoccus sp. (in: a-proteobacteria), 4M6, 15 h; values are per cent of control.
The subject of data set [6] is Pseudomonas aeruginosa. Briefly: Antibiofilm activity against Pseudomonas aeruginosa assessed as modulation of biofilm formation. The class given is functional, organism-based.
The test system of data set [7] is Pseudomonas aeruginosa. Briefly: Antibiofilm activity against Pseudomonas aeruginosa assessed as dispersion of bacterial biofilm. The class given is functional, organism-based.
The nature of data set [8]: Antibacterial activity against Paracoccus sp. 4M6 assessed as growth inhibition at 100 uM up to 6 hrs by viability assay.
A short description of data set [9]: Antibacterial activity against Pseudoalteromonas sp. D41 assessed as growth inhibition at 10 uM up to 6 hrs by viability assay. The settings on record: pseudoalteromonas sp. d41, 6 h.
Data set [10] in a line: Antibacterial activity against Paracoccus sp. 4M6 assessed as growth inhibition at 10 uM up to 6 hrs by viability assay.

For `COc1cccc(Cn2cc(-c3cc(OC)cc(OC)c3)nn2)c1`, the values for the EC50 (in data set [1]; in the data set with Paracoccus sp. [2]) were 34.8 µM and > 200 µM, respectively. The “growth inhibition (GI)” value in data set [3] is “Non-toxic”.
For the compound `COc1ccc(-c2cnnn2Cc2cccc(OC)c2)cc1`, the EC50 (usually the concentration at which the effect is half-maximal) in data set [1] is 172 µM; in the data set with Paracoccus sp. [2] it was > 200 µM.
In the case of `Oc1ccc(Cn2cc(-c3cc(O)cc(O)c3)nn2)cc1`, the figures for the concentration for a half-maximal effect (EC50) (in data set [1]; with Paracoccus sp. [2]) were > 200 µM and 181 µM, respectively.
Turning to `COc1ccc(Cn2nncc2-c2ccccc2)cc1`, the EC50 (in [1]; in the data set on Paracoccus sp. [2]) was > 200 µM in each case. The inhibition (in general, the change of the read-out against control, counted positive when it falls) at 200 µM in [4] was found to be 70.9%. The response, % of control at 200 µM in the data set with Paracoccus sp. [5] was found to be 127%.
With `COc1cccc(Cn2nncc2-c2cc(OC)cc(OC)c2)c1`, the concentration for a half-maximal effect (EC50) in data set [1] is 48.6 µM; in the data set on Paracoccus sp. [2], > 200 µM. Also, the “growth inhibition (GI)” value in data set [3] was “Non-toxic”.
Turning to `COc1ccc(Cc2[nH]c(=N)n(C)c2Cc2ccc(O)cc2)cc1` [NAAMINE A], the EC50 in the data set on Pseudomonas aeruginosa [6] and with Pseudomonas aeruginosa [7] was 436 µM each time.
Take `COc1ccc(Cn2nncc2-c2cc(OC)cc(OC)c2)cc1`: the concentration giving a half-maximal response (EC50) in data set [1] was determined as 37.2 µM; in the data set with Paracoccus sp. [2], 90.3 µM. Moreover, the “growth inhibition (GI)” value in data set [3] and in data set [8] was “Non-toxic” each time.
`Oc1ccc(Cn2nncc2-c2ccc(O)cc2)cc1`: the EC50 (in data set [1]; in the data set with Paracoccus sp. [2]) was > 200 µM throughout.
With `Oc1cccc(Cn2nncc2-c2cc(O)cc(O)c2)c1`, the EC50 (in [1]; in the data set with Paracoccus sp. [2]) was > 200 µM in each case.
For the compound `Oc1ccc(-c2cnnn2Cc2cccc(O)c2)cc1`, the EC50 (in [1]; in the data set on Paracoccus sp. [2]) was > 200 µM in each case.
Consider `Oc1ccc(Cn2cc(-c3ccc(O)cc3)nn2)cc1`, for which the concentration giving a half-maximal response (EC50) was > 200 µM in [1] and 131 µM in the data set on Paracoccus sp. [2].
For `Oc1cccc(Cn2cc(-c3cc(O)cc(O)c3)nn2)c1`, in that order: > 200 µM and > 200 µM.
For `Oc1ccc(Cn2nncc2-c2cc(O)cc(O)c2)cc1`, in that order: > 200 µM and > 200 µM.
As for `COc1ccc(Cn2nncc2Cc2ccccc2)cc1`, the EC50 in data set [1] is > 200 µM; with Paracoccus sp. [2], 199 µM. In data set [4], the inhibition at 200 µM is 55.5%.
`COc1ccc(Cn2cc(-c3cc(OC)cc(OC)c3)nn2)cc1`: the values for the 50% effective concentration (EC50) (in data set [1]; with Paracoccus sp. [2]) were 62 µM and 199 µM, respectively. Moreover, the “growth inhibition (GI)” value in data set [3] was “Non-toxic”.
On to `COc1cccc(Cn2nncc2-c2ccccc2)c1`, for which the 50% effective concentration (EC50) (in [1]; in the data set on Paracoccus sp. [2]) was > 200 µM in each case. For the same compound, the inhibition at 200 µM in data set [4] is 50.5%. Moreover, in the data set with Paracoccus sp. [5], the response, % of control at 200 µM worked out at 142%.
On to `COc1ccc(Cn2nncc2-c2ccc(OC)cc2)cc1`, for which the 50% effective concentration (EC50) (in data set [1]; in the data set with Paracoccus sp. [2]) was > 200 µM in each case.
`COc1ccc(Cn2cc(-c3ccc(OC)cc3)nn2)cc1`: the half-maximal effective concentration (EC50) (in data set [1]; in the data set on Paracoccus sp. [2]) was > 200 µM throughout.
In the case of `COc1ccc(Cn2nncc2CCc2ccccc2)cc1`, the EC50 (in data set [1]; in the data set with Paracoccus sp. [2]) was > 200 µM throughout. In [4], the inhibition at 200 µM was found to be 78.5%. For the same compound, the response, % of control at 200 µM in the data set with Paracoccus sp. [5] came out at 97.8%.
With `COc1cccc(Cn2nncc2Cc2ccccc2)c1`, the concentration giving a half-maximal response (EC50) (in [1]; in the data set on Paracoccus sp. [2]) was > 200 µM each time. Moreover, the inhibition at 200 µM in data set [4] stood at 58.5%. Further, in the data set on Paracoccus sp. [5], the response, % of control at 200 µM was 149%.
With `COc1cccc(Cn2nncc2CCc2ccccc2)c1`, the EC50 (in [1]; with Paracoccus sp. [2]) was > 200 µM in each case. In data set [4], the inhibition at 200 µM was 86.4%. Further, in the data set on Paracoccus sp. [5], the response, % of control at 200 µM came out at 65.5%.
With `Oc1ccc(-c2cn(Cc3cccc(O)c3)nn2)cc1`, the figures for the concentration giving a half-maximal response (EC50) (in data set [1]; in the data set on Paracoccus sp. [2]) were 129 µM and 41.2 µM, respectively. The “growth inhibition (GI)” value in data set [8] is listed as “Non-toxic”.
With `COc1ccc(-c2cn(Cc3cccc(OC)c3)nn2)cc1`, the EC50 (in data set [1]; in the data set with Paracoccus sp. [2]) was > 200 µM throughout.
As to `CCn1cc(C(=O)O)c(=O)c2cc(F)c(N3CCNCC3)cc21` [NORFLOXACIN], the “growth inhibition (GI)” value in [9] and in data set [10] was “Toxic” throughout.
